Data on 1 compound can be found in publication PMC8931317 (Proceedings of the National Academy of Sciences of the …, 2022).

A word on the Kd: it is the equilibrium constant for the complex coming apart. Low values mean a tighter complex, high ones a looser complex.

The assay deals with T1, YeiE (CsYeiE) (Cronobacter sakazakii, UniProt H9BVC9).
T1 sequence (H9BVC9 85-288): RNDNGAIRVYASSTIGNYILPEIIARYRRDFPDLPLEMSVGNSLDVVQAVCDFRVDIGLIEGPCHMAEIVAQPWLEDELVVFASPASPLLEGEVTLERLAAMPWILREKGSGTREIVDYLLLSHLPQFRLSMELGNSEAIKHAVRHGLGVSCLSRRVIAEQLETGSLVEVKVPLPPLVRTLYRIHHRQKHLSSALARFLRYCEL
Put plainly: ITC. In kind it is binding.

Structures are written as SMILES.

Regarding `O=S(O)O` [sulfite], the Kd came to 1.38 µM.
